Results taken from ChEMBL document CHEMBL4680122, “Design, synthesis and biological evaluation of new Axl kinase inhibitors containing 1,3,4-oxadiazole acetamide moiety as novel linker” (Eur J Med Chem, 2020).

How the values were obtained:
HT-29 [1] = test: Potency index, ratio of foretinib IC50 to test compound IC50 for antiproliferative activity against human HT-29 cells; type: functional
A549 [2] = test: cells; conditions: Homo sapiens, A549, 72 h
Description: Antiproliferative activity against human A549 cells measured after 72 hrs by MTT assay

A549 [3] = test: Potency index, ratio of foretinib IC50 to test compound IC50 for antiproliferative activity against human A549 cells; type: functional
[4] = target: Tyrosine-protein kinase receptor UFO (Homo sapiens) (UniProt P30530); conditions: dose 100.0 nM, time 1.0 hrs
HT-29 [5] = test: Antiproliferative activity against human HT-29 cells measured after 72 hrs by MTT assay; conditions: HT-29, 72 h
MCF7 = test: Potency index, ratio of foretinib IC50 to test compound IC50 for antiproliferative activity against human MCF7 cells; type: functional
[6] = target: Vascular endothelial growth factor receptor 3 (Homo sapiens) (UniProt P35916); test: Inhibition of Flt4 (unknown origin) at 200 nM relative to control
Sequence of Vascular endothelial growth factor receptor 3 (Homo sapiens) (P35916 whole entry, the tested form may be a part): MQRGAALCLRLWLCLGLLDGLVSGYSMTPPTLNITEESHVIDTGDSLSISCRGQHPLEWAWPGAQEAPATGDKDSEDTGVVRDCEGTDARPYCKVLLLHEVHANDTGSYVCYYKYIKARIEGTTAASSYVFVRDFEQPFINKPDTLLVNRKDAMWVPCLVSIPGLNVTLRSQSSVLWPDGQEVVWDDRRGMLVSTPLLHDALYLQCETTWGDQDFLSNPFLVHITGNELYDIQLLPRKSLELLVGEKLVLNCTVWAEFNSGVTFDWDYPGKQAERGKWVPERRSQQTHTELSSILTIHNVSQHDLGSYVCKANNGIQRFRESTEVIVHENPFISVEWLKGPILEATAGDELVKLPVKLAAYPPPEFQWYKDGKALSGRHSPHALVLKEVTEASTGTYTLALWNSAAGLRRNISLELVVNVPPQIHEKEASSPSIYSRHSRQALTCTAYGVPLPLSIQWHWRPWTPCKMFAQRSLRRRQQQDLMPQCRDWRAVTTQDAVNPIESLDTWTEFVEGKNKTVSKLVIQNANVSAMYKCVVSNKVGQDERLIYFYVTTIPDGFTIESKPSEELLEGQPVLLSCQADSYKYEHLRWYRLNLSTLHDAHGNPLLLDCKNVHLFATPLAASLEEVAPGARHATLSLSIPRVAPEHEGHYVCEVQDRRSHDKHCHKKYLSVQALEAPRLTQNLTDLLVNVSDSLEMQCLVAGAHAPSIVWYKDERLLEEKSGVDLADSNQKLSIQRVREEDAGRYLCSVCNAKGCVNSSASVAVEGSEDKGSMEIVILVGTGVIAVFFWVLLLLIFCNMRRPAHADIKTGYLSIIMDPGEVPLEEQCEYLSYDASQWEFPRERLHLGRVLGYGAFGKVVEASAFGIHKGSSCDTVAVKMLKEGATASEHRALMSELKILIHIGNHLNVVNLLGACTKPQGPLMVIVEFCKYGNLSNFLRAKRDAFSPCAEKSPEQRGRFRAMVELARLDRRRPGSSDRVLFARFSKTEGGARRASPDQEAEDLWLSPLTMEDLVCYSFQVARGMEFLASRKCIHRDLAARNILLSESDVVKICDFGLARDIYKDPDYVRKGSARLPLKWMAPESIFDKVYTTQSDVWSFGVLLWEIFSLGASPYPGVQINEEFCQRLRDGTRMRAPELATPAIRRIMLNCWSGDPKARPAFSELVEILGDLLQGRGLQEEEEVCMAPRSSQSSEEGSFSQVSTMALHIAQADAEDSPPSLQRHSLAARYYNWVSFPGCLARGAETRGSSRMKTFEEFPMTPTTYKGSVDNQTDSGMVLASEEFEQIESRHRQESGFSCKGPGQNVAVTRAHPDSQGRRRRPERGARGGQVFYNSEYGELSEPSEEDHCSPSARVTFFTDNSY

[7] = target: Mast/stem cell growth factor receptor Kit (Homo sapiens, UniProt P10721); test: Inhibition of human N-terminal GST-tagged c-Kit cytoplasmic domain (544 to end residues) expressed in baculovirus infected Sf21 insect cells using peptide substrate measured after 1 hr by mobility shift assay
Sequence of Mast/stem cell growth factor receptor Kit (P10721 whole entry, the tested form may be a part): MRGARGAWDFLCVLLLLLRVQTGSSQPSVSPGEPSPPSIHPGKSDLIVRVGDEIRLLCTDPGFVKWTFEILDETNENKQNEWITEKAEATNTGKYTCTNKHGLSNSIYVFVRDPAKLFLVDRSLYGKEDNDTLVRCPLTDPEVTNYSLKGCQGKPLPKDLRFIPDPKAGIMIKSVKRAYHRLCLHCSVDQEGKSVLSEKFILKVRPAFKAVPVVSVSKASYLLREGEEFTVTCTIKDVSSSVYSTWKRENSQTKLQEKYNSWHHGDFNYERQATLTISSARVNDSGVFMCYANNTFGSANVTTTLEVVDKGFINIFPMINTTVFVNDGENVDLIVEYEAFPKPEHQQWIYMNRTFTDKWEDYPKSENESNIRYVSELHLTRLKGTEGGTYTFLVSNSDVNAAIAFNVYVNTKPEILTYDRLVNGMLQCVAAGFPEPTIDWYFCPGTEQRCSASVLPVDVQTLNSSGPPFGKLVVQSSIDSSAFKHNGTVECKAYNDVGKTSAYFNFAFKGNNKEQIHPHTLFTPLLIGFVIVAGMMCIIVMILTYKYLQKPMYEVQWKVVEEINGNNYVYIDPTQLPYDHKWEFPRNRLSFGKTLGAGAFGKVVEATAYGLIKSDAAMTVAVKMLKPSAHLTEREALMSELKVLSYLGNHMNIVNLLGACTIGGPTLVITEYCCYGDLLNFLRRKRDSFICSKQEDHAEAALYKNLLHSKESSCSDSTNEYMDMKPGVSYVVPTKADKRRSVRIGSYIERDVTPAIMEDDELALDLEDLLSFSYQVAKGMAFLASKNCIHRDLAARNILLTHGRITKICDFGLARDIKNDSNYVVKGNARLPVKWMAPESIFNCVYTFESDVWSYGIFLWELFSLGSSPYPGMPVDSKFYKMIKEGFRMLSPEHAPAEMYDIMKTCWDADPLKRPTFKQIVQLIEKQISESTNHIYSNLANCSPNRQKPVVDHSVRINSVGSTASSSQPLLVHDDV

NCI-H1975 = test: Antiproliferative activity against human NCI-H1975 cells measured after 72 hrs by MTT assay; type: functional, cell-based; conditions: NCI-H1975, 72 h
[8] = target: T1, Tyrosine-protein kinase receptor UFO (Homo sapiens, UniProt P30530); test: Inhibition of human N-terminal GST-fused Axl cytoplasmic domain (464 to 885 residues) expressed in baculovirus expression system using CSKtide as substrate measured after 1 hr by mobility shift assay
T1 sequence (P30530 whole entry): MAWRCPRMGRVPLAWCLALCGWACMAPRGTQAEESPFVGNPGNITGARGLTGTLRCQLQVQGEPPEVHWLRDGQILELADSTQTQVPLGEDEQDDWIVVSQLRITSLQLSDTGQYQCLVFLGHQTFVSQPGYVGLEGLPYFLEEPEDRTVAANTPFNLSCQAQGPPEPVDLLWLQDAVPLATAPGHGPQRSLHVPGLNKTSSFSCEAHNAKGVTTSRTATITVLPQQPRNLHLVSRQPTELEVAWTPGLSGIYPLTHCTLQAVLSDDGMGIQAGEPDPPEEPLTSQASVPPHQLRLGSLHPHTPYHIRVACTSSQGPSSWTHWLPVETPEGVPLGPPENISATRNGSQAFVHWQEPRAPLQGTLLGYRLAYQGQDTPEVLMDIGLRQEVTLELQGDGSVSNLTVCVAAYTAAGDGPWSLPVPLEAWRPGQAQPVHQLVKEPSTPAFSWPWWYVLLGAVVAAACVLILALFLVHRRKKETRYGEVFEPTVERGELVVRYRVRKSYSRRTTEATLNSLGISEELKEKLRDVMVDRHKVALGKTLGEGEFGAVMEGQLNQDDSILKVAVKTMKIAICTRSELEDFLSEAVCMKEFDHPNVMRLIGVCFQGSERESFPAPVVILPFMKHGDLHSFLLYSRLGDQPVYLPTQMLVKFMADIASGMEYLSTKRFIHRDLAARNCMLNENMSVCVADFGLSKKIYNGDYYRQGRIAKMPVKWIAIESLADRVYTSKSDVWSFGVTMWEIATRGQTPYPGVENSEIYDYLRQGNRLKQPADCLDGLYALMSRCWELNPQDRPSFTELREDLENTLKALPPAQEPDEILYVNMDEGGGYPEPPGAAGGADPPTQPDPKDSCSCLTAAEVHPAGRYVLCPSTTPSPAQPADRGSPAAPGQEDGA

[9] = target: Hepatocyte growth factor receptor (Homo sapiens, UniProt P08581); test: Inhibition of human N-terminal GST-fused c-MET cytoplasmic domain (956 to 1390 residues) expressed in baculovirus expression system using Srctide as substrate measured after 1 hr by mobility shift assay
Sequence of Hepatocyte growth factor receptor (P08581 whole entry, the tested form may be a part): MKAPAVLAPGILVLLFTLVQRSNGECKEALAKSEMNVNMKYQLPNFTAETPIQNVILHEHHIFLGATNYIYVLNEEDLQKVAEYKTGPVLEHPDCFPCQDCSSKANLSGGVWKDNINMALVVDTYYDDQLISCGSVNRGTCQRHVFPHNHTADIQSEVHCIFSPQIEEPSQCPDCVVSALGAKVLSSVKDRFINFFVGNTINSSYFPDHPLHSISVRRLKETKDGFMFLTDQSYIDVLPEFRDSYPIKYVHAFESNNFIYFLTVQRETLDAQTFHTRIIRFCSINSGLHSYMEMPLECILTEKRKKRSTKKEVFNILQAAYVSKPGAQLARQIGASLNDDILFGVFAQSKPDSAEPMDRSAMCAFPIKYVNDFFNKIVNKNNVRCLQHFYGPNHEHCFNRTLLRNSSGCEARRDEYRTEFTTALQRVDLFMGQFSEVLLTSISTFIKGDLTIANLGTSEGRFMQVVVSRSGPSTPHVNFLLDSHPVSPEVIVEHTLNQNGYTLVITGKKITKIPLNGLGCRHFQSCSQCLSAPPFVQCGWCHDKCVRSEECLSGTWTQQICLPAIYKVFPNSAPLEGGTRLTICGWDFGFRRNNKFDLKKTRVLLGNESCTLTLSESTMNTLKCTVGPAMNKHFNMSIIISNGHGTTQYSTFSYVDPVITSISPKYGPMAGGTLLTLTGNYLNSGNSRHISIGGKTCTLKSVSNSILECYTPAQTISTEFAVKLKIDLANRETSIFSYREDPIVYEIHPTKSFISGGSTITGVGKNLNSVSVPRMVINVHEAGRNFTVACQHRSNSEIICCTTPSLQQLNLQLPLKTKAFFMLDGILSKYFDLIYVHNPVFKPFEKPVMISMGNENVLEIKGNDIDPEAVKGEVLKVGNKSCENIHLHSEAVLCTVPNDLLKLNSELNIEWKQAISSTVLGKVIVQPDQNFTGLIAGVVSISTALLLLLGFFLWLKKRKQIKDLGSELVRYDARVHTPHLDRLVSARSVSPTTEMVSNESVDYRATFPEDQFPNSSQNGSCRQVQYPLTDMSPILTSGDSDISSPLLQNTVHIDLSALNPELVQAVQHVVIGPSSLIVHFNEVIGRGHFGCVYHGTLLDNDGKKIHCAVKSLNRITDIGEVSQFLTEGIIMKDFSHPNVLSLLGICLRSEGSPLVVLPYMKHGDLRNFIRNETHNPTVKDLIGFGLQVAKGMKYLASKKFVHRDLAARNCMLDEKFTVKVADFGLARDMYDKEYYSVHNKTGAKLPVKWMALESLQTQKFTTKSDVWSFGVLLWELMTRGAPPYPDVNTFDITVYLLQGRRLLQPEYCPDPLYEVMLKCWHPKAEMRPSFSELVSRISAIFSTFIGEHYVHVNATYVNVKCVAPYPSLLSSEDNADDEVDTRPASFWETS

[10] = target: T2, Receptor-type tyrosine-protein kinase FLT3 (Homo sapiens, UniProt P36888); test: Inhibition of human N-terminal GST-fused FLT3 cytoplasmic domain (564 to 993 residues) expressed in baculovirus expression system using Srctide as substrate measured after 1 hr by mobility shift assay
T2 sequence (P36888 whole entry): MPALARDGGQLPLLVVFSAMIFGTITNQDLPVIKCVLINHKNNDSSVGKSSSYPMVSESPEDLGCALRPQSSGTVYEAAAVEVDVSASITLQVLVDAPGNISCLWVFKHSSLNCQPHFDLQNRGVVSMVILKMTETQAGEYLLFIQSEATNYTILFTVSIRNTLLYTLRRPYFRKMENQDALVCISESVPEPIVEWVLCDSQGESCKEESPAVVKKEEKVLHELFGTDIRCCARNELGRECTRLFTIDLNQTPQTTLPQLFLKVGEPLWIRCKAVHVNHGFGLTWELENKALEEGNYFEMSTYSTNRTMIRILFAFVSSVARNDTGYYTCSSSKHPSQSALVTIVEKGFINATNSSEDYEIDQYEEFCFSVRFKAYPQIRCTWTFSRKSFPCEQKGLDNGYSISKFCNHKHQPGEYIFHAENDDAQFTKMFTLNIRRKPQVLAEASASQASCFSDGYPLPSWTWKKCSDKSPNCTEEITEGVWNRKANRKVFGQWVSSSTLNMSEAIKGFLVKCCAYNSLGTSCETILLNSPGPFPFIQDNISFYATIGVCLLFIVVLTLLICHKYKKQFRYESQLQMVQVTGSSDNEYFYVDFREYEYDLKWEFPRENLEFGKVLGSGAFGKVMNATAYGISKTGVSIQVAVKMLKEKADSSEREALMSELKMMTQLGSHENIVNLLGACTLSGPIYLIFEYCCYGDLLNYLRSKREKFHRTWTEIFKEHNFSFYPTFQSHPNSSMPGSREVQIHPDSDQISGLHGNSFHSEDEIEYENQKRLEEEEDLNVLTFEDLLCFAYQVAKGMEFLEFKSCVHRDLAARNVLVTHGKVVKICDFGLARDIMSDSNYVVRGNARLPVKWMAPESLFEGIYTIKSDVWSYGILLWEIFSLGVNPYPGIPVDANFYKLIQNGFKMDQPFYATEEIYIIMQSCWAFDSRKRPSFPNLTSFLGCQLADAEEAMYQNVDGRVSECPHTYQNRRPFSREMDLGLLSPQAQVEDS

[11] = target: Vascular endothelial growth factor receptor 2 (Homo sapiens, UniProt P35968); test: Inhibition of human N-terminal GST-fused KDR cytoplasmic domain (790 to 1356 residues) expressed in baculovirus expression system using CSKtide as substrate measured after 1 hr by mobility shift assay
Sequence of Vascular endothelial growth factor receptor 2 (P35968 whole entry, the tested form may be a part): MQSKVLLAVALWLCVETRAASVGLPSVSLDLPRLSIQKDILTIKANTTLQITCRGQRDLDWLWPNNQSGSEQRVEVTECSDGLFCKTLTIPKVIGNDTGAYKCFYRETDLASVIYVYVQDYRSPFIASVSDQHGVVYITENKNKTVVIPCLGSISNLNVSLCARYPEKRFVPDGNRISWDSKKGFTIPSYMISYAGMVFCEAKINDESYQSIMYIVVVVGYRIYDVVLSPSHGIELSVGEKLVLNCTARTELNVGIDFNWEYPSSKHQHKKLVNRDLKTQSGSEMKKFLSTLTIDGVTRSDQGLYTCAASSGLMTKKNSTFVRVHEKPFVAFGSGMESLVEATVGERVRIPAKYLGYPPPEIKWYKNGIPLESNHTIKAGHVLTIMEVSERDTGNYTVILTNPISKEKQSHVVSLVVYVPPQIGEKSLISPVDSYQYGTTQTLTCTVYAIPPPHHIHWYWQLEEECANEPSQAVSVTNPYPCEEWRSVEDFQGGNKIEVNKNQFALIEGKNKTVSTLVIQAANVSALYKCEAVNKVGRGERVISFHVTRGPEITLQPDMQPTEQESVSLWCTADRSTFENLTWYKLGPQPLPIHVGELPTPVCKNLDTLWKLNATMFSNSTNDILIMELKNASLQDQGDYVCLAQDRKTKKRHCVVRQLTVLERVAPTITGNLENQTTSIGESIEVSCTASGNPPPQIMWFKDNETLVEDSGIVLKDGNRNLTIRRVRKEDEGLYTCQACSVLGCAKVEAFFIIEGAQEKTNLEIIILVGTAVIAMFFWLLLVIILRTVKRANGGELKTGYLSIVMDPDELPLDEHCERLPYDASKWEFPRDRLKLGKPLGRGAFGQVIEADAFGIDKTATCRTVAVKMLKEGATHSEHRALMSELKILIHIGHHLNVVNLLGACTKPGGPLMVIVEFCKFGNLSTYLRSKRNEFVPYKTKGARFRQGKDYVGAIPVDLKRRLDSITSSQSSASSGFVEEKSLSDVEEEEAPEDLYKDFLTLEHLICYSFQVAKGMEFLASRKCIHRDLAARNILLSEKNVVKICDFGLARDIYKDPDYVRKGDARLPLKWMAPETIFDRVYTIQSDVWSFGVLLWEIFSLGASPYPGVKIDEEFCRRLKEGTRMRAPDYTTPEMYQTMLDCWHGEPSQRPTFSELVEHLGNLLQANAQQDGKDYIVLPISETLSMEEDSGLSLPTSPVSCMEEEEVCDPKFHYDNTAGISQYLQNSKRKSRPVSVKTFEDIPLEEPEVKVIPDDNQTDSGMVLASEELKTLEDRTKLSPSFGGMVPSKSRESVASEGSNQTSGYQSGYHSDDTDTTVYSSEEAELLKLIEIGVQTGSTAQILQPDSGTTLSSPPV

[12] = target: Aurora kinase B (Homo sapiens) (UniProt Q96GD4); test: Inhibition of Aurora-B (unknown origin) at 200 nM relative to control

- IC50 (A549 [2]): 53 nM
- inhibition [4]: 93.7%
- IC50 (HT-29 [5]): 1030 nM
- inhibition [6]: > 80%
- IC50 [7]: 63 nM
- IC50 (NCI-H1975): 99 nM
- IC50 [8]: 10 nM
- IC50 [9]: 71 nM
- IC50 [10]: 103 nM
- IC50 [11]: 81 nM
- inhibition [12]: > 80%
SMILES: COc1cc2c(Oc3ccc(NC(=O)C4(c5nnc(-c6ccc(F)cc6)o5)CC4)cc3F)ccnc2cc1OCCCN1CCCCC1
- Ratio IC50 (HT-29 [1]): 1.57
- Ratio IC50 (A549 [3]): 1.9
- Ratio IC50 (MCF7): 2
